This data set is described as follows: Stability of the amidite intermediate on storage (UPLC/HPLC analysis). The format is physicochemical. The procedure: The following conditions were used for the analysis of compound 5.
Mobile phase [A]: 60 mM ammonia-ammonium acetate-containing buffer solution (pH 8.0), Mobile phase [B]: acetonitrile
Gradient: 15% solvent [B] was kept for 0.5 minutes, then linear gradient from 15% to 50% solvent [B] was performed in 2.5 minutes, linear gradient from 50% to 65% solvent [B] was performed in 9 minutes, linear gradient from 65% to 95% solvent [B] was performed in 3 minutes, and 95% solvent [B] was kept for 1 minute.
Column: ACQUITY UPLC (registered trademark) BEH Phenyl (1.7 μm, i.d. 2.1×100 mm) (Waters)
UV Detection wavelength: 295 nm
The following conditions were used for the analysis of comparative compound.
Mobile phase [A]: 10 mM ammonium formate-containing aqueous solution, Mobile phase [B]: methanol
Gradient: 97% solvent [B] was kept for 20 minutes.
Column: Triart (registered trademark) C8 (3 μm, i.d. 4.6×100 mm) (YMC)
Detector: Corona CAD, Corona CAD detection conditions: 60 Hz, BCD polarity+, pressure 35±1 psi, total flow rate 1.53 mL/min

Regarding `CCCCCCCCCCCCCCCCCCCC(=O)NCC(CNC(=O)CCCCCCCCCCCCCCCCCCC)OP(OCCC#N)N(C(C)C)C(C)C` (centres unmarked) [Comparative compound], the “Stability (analysis value)” value is given as 33.8% (−20° C., after 7 months); 42.0% (−20° C., after 71 days); 54.3% (−20° C., initial). Besides, the Decomposition on storage result (−20° C., over time) is listed as “unstable”.
In the case of `CC(C)N(C(C)C)P(OCCC#N)OC(CN1C(=O)c2ccccc2C1=O)CN1C(=O)c2ccccc2C1=O` (centres unmarked) [Compound 5], under “40° C. for 50 days”, the Decomposition on storage entry is given as “No decomposition”. Besides, the “Stability (analysis value)” value (40° C., after 7 days) is 99.6%; the “Stability (analysis value)” value (40° C., after 50 days) is on record as 99.7%; the “Stability (analysis value)” value (40° C., initial) was 99.6%.

Source of the values: patent US12351804B2, “Production method for bifurcated lipid-linked oligonucleotide, and intermediate” (Shionogi & Co., Ltd., priority 2019, dated 2025).
